Consider 29 molecules from US7208526B2, “Styrylsulfonamides” (Hoffmann-La Roche Inc., priority 2005, dated 2007).

pIC50: −log10 of the molar value. Where a name gives a salt, the structure may show the parent alone.

In the assay the test system is HCT 116 cells (human colon carcinoma, ATCC-No. CCl-247). The assay is described as follows: Viability assay in HCT 116 cells (CellTiter-Glo Luminescent Cell Viability Assay). The format is cell-based. Particulars: 10 concentrations 30 μM to 0.0015 μM, incubation 120 h (5 days), luminescence (ATP), triplicate. The source says: Viability Assay in HCT 116 Cells
This assay is a homogeneous method of determining the number of viable cells in culture based on quantitation of the ATP present, an indicator of metabolically active cells. The assay is designed for use with multiwell formats, making it ideal for automated high-throughput screening (HTS), cell proliferation and cytotoxicity assays. The homogeneous assay procedure involves adding a single reagent (containing luciferase, luciferan substrate, and buffer) directly to cells cultured in serum-supplemented medium. Cell washing, removal of medium and multiple pipetting steps are not required. The system detects as few as 15 cells/well in a 384-well format in 10 minutes after adding reagent and mixing.
The homogeneous “add-mix-measure” format results in cell lysis and generation of a luminescent signal proportional to the amount of ATP present. The amount of ATP is directly proportional to the number of cells present in culture. The above-referenced assay generates a “glow-type” luminescent signal, produced by the luciferase reaction, which has a half-life generally greater than five hours, depending on cell type and medium used. The extended half-life eliminates the need to use reagent injectors and provides flexibility for continuous or batch mode processing of multiple plates. The unique homogeneous format avoids errors that may be introduced by other ATP measurement methods that require multiple steps.
For the assay the cells were seeded in 384 well plates, 1000 cells per well, in the same medium. […] After 5 days the viability assay was done according to the instructions of the manufacturer. In brief: the cell-plate was equilibrated to room temperature for approximately 30 minutes and then reagent (containing luciferase, luciferan substrate, and buffer) was added. The contents were carefully mixed for 15 minutes to induce cell lysis. After 45 minutes the luminescent signal was measured in Victor 2, (scanning multiwell spectrophotometer, Wallac).
In order to achieve a final concentration of 30 μM as highest concentration […] of 10 mM compound stock solution were added directly to 163 μl media. Then step e) of the dilution procedure described below, was followed.
Analysis: • Add 30 μl of reagent containing luciferase, luciferan substrate, and buffer per well, • shake 15 minutes at room temperature • incubate further 45 minutes at room temperature without shaking
Measurement: • Victor 2 scanning multiwell spectrophotometer (Wallac), Luminescence mode (0.5 sec/read, 477 nm) • Determine IC50 using a non-linear curve fit (XLfit® software [ID Business Solution Ltd., Guilford, Surrey, UK])
(In ATP-based viability assays light output follows the ATP content of the culture.)
As a reminder, the pIC50 is the negative decadic logarithm of the IC50, by convention in mol/L. A higher pIC50 goes with a small IC50. `O=C(NS(=O)(=O)/C=C/c1ccccc1)c1ccc(F)cc1Br` [Example 6-2, (E)-2-Phenyl-ethenesulfonic acid 2-bromo-4-fluoro-benzoylamide; sodium salt] had a pIC50 of 4.82 to 6.30.
In the case of `O=C(NS(=O)(=O)C=Cc1ccccc1)c1ccc(Cl)cc1F` [Example 1-43, 2-Phenyl-ethenesulfonic acid 4-chloro-2-fluoro-benzoylamide] it was 4.82 to 6.30; in that of `O=C(NS(=O)(=O)/C=C/c1ccccc1)c1ccc(Br)cc1Cl` [Example 6-5, (E)-2-Phenyl-ethenesulfonic acid 4-bromo-2-chloro-benzoylamide; sodium salt], 4.82 to 6.30; in that of `O=C(NS(=O)(=O)/C=C/c1ccc(Cl)cc1)c1ccc(Cl)cc1Cl` [Example 1-1, (E)-2-(4-Chloro-phenyl)-ethenesulfonic acid 2,4-dichloro-benzoylamide], 5.07.
In the case of `COc1ccccc1/C=C/S(=O)(=O)NC(=O)c1ccc(C)cc1Br` [Example 4-13, (E)-2-(2-Methoxy-phenyl)-ethenesulfonic acid 2-bromo-4-methyl-benzoylamide; sodium salt] it was 4.82 to 6.30.
In the case of `COc1cc(Br)ccc1C(=O)NS(=O)(=O)/C=C/c1ccccc1` [Example 5-1, (E)-2-Phenyl-ethenesulfonic acid 4-bromo-2-methoxy-benzoylamide] it was 4.82 to 6.30; in that of `COc1cccc(/C=C/S(=O)(=O)NC(=O)c2ccc(F)cc2Cl)c1` [Example 1-14, (E)-2-(3-Methoxy-phenyl)-ethenesulfonic acid 2-chloro-4-fluoro-benzoylamide; sodium salt], 4.82 to 6.30.
As to `CN(C)c1ccccc1/C=C/S(=O)(=O)NC(=O)c1ccc(Cl)cc1Cl` [Example 1-13, (E)-2-(2-Dimethylamino-phenyl)-ethenesulfonic acid 2,4-dichloro-benzoylamide], the pIC50 is 4.82 to 6.30.
The result for `Cc1ccc(C(=O)NS(=O)(=O)/C=C/c2ccc(Cl)c(Cl)c2)c(Br)c1` [Example 4-16, (E)-2-(3,4-Dichloro-phenyl)-ethenesulfonic acid 2-bromo-4-methyl-benzoylamide; sodium salt] reads 4.82 to 6.30; that for `Cc1cc(Br)ccc1C(=O)NS(=O)(=O)C=Cc1ccccc1Cl` [Example 4-10, 2-(2-Chlorophenyl)-ethenesulfonic acid 4-bromo-2-methyl-benzoylamide; sodium salt], 4.82 to 6.30; that for `COc1ccccc1/C=C/S(=O)(=O)NC(=O)c1ccc(C)cc1C` [Example 4-31, (E)-2-(2-Methoxy-phenyl)-ethenesulfonic acid 2,4-dimethyl-benzoylamide; sodium salt], 4.82 to 6.30.
The result for `O=C(NS(=O)(=O)/C=C/c1ccccc1)c1ccc(F)cc1C(F)(F)F` [Example 1-45, (E)-2-Phenyl-ethenesulfonic acid 4-fluoro-2-trifluoromethyl-benzoylamide; sodium salt] reads 4.82 to 6.30.
In the case of `Cc1cc(Cl)ccc1C(=O)NS(=O)(=O)/C=C/c1ccccc1Cl` [Example 4-2, (E)-2-(2-Chlorophenyl)-ethenesulfonic acid 4-chloro-2-methyl-benzoylamide; sodium salt] it was 4.82 to 6.30; in that of `O=C(NS(=O)(=O)/C=C/c1ccccc1Cl)c1ccc(F)cc1Br` [Example 4-21, (E)-2-(2-Chlorophenyl)-ethenesulfonic acid 2-bromo-4-fluoro-benzoylamide; sodium salt], 4.82 to 6.30; in that of `O=C(NS(=O)(=O)/C=C/c1ccc(F)cc1F)c1ccc(F)cc1Cl` [Example 1-17, (E)-2-(2,4-Difluoro-phenyl)-ethenesulfonic acid 2-chloro-4-fluoro-benzoylamide; sodium salt], 4.82 to 6.30.
`C/C(=C\c1ccccc1)S(=O)(=O)NC(=O)c1ccc(Cl)cc1Cl` [Example 2-1, (E)-1-Phenyl-propene-2-sulfonic acid 2,4-dichloro-benzoylamide] gave a pIC50 of 4.82 to 6.30.
Turning to `O=C(NS(=O)(=O)/C=C/c1ccccc1Cl)c1ccc(F)cc1C(F)(F)F` [Example 1-23, (E)-2-(2-Chlorophenyl)-ethenesulfonic acid 4-fluoro-2-trifluoromethyl-benzoylamide; sodium salt], the negative-log IC50 (pIC50) was 4.82 to 6.30.
The result for `Cc1ccc(/C=C/S(=O)(=O)NC(=O)c2ccc(C(F)(F)F)cc2C(F)(F)F)c(C)c1` [Example 1-26, (E)-2-(2,4-Dimethyl-phenyl)-ethenesulfonic acid 2,4-bis-trifluoromethyl-benzoylamide; sodium salt] reads 4.82 to 6.30; that for `O=C(NS(=O)(=O)/C=C/c1ccccc1Cl)c1ccc(C(F)(F)F)cc1C(F)(F)F` [Example 1-30, (E)-2-(2-Chlorophenyl)-ethenesulfonic acid 2,4-bis-trifluoromethyl-benzoylamide; sodium salt], 4.82 to 6.30; that for `O=C(NS(=O)(=O)/C=C/c1cccc(O)c1)c1ccc(Cl)cc1Cl` [Example 1-35, (E)-2-(3-Hydroxy-phenyl)-ethenesulfonic acid 2,4-dichloro-benzoylamide], 4.82 to 6.30.
`O=C(NS(=O)(=O)/C=C/c1ccc(OC(F)(F)F)cc1)c1ccc(Cl)cc1Cl` [Example 1-9, (E)-2-(4-Trifluoromethoxyphenyl)-ethenesulfonic acid 2,4-dichloro-benzoylamide]: the pIC50 was 4.82 to 6.30.
In the case of `C/C(=C\S(=O)(=O)NC(=O)c1ccc(Cl)cc1Cl)c1ccccc1` [Example 3-1, (E)-2-Phenyl-propene-1-sulfonic acid 2,4-dichloro-benzoylamide] it was 5.04; in that of `O=C(NS(=O)(=O)/C=C/c1ccccc1)c1ccc(Cl)cc1Cl` [Example 1-2, (E)-2-Phenyl-ethenesulfonic acid 2,4-dichloro-benzoylamide], 5.51; in that of `Cc1ccc(C(=O)NS(=O)(=O)/C=C/c2ccc(OC(F)(F)F)cc2)c(Br)c1` [Example 4-37, (E)-2-(4-Trifluoromethoxyphenyl)-ethenesulfonic acid 2-bromo-4-methyl-benzoylamide; sodium salt], 4.82 to 6.30.
The result for `COc1cccc(/C=C/S(=O)(=O)NC(=O)c2ccc(Cl)cc2OC)c1` [Example 4-5, (E)-2-(3-Methoxy-phenyl)-ethenesulfonic acid 4-chloro-2-methoxy-benzoylamide; sodium salt] reads 4.82 to 6.30; that for `Cc1ccc(C(=O)NS(=O)(=O)/C=C/c2ccc(Cl)c(Cl)c2)c(C)c1` [Example 4-34, (E)-2-(3,4-Dichloro-phenyl)-ethenesulfonic acid 2,4-dimethyl-benzoylamide; sodium salt], 4.82 to 6.30.
The result for `COc1ccccc1/C=C/S(=O)(=O)NC(=O)c1ccc(Br)cc1C` [Example 4-8, (E)-2-(2-Methoxy-phenyl)-ethenesulfonic acid 4-bromo-2-methyl-benzoylamide; sodium salt] reads 4.82 to 6.30.
With `COc1cc(Cl)ccc1C(=O)NS(=O)(=O)C=Cc1ccccc1` [Example 6-1, 2-Phenyl-ethenesulfonic acid 4-chloro-2-methoxy-benzoylamide], the pIC50 is 4.82 to 6.30.
The result for `O=C(NS(=O)(=O)/C=C/c1ccccc1Cl)c1ccc(Br)cc1Cl` [Example 4-28, (E)-2-(2-Chloro-phenyl)-ethenesulfonic acid 4-bromo-2-chloro-benzoylamide; sodium salt] reads 4.82 to 6.30.
